How the values were obtained:
Assay type in all cases: in vivo
barnyard grass [1] = experiment: Test Example 1: weedkilling efficacy, preemergent weed treatment in the submerged state; A: barnyard grass; conditions: treatment dosage 1000 g/ha
How it was run: (§1)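 Emulsion diluted with water to the specified per-hectare dosage is applied onto flood water (4 cm) over alluvial soil on the sowing day, with barnyard grass, bulrush and pondweed seeded and rice (2.5-leaf) transplanted; plants grow at 25–30 °C and are rated at 3 weeks.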

bulrush [2] = experiment: Test Example 1: weedkilling efficacy, preemergent weed treatment in the submerged state; B: bulrush; conditions: treatment dosage 1000 g/ha
How it was run: as §1

oval-leafed pondweed [3] = experiment: Test Example 1: weedkilling efficacy, preemergent weed treatment in the submerged state; C: oval-leafed pondweed; conditions: treatment dosage 1000 g/ha
How it was run: as §1

transplanted rice = experiment: Test Example 1: preemergent weed treatment in the submerged state, effect on crop; a: transplanted rice; conditions: treatment dosage 1000 g/ha
How it was run: as §1

barnyard grass [4] = experiment: Test Example 2: weedkilling efficacy, growth period weed treatment in the submerged state; A: barnyard grass; conditions: treatment dosage 1000 g/ha
How it was run: (§2)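 First, alluvial soil in pots is flooded to 4 cm and mixed seed is sown. Next, plants grow in a greenhouse at 25 to 30° C until the 1-2 leaf stage. Then diluted emulsion is applied onto the water surface at the given g/ha rate, and injury is assessed after 3 weeks.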

bulrush [5] = experiment: Test Example 2: weedkilling efficacy, growth period weed treatment in the submerged state; B: bulrush; conditions: treatment dosage 1000 g/ha
How it was run: as §2

oval-leafed pondweed [6] = experiment: Test Example 2: weedkilling efficacy, growth period weed treatment in the submerged state; C: oval-leafed pondweed; conditions: treatment dosage 1000 g/ha
How it was run: as §2

crabgrass [7] = experiment: Test Example 3: weedkilling efficacy through soil treatment; D: crabgrass; conditions: treatment dosage 1250 g/ha
How it was run: (§3)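 Crop and weed responses were judged three weeks after a uniform surface spray of the water-diluted emulsion at the given g/ha rate. Seeds sat beneath about 1.5 cm of sterilized diluvial soil, and boxes stood in a greenhouse at 25 to 30° C.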

green foxtail [8] = experiment: Test Example 3: weedkilling efficacy through soil treatment; E: green foxtail; conditions: treatment dosage 1250 g/ha
How it was run: as §3

wild oat [9] = experiment: Test Example 3: weedkilling efficacy through soil treatment; G: wild oat; conditions: treatment dosage 1250 g/ha
How it was run: as §3

black-grass [10] = experiment: Test Example 3: weedkilling efficacy through soil treatment; H: black-grass; conditions: treatment dosage 1250 g/ha
How it was run: as §3

Italian ryegrass [11] = experiment: Test Example 3: weedkilling efficacy through soil treatment; I: Italian ryegrass; conditions: treatment dosage 1250 g/ha
How it was run: as §3

Indian mallow [12] = experiment: Test Example 3: weedkilling efficacy through soil treatment; K: Indian mallow; conditions: treatment dosage 1250 g/ha
How it was run: as §3

redroot pigweed [13] = experiment: Test Example 3: weedkilling efficacy through soil treatment; L: redroot pigweed; conditions: treatment dosage 1250 g/ha
How it was run: as §3

fig-leafed goosefoot [14] = experiment: Test Example 3: weedkilling efficacy through soil treatment; M: fig-leafed goosefoot; conditions: treatment dosage 1250 g/ha
How it was run: as §3

chickweed [15] = experiment: Test Example 3: weedkilling efficacy through soil treatment; N: chickweed; conditions: treatment dosage 1250 g/ha
How it was run: as §3

catchweed [16] = experiment: Test Example 3: weedkilling efficacy through soil treatment; O: catchweed; conditions: treatment dosage 1250 g/ha
How it was run: as §3

birds-eye speedwell [17] = experiment: Test Example 3: weedkilling efficacy through soil treatment; p: birds-eye speedwell; conditions: treatment dosage 1250 g/ha
How it was run: as §3

directly sown rice [18] = experiment: Test Example 3: soil treatment, effect on crop; b: directly sown rice; conditions: treatment dosage 1250 g/ha
How it was run: as §3

corn [19] = experiment: Test Example 3: soil treatment, effect on crop; c: corn; conditions: treatment dosage 1250 g/ha
How it was run: as §3

soybean [20] = experiment: Test Example 3: soil treatment, effect on crop; d: soybean; conditions: treatment dosage 1250 g/ha
How it was run: as §3

wheat [21] = experiment: Test Example 3: soil treatment, effect on crop; e: wheat; conditions: treatment dosage 1250 g/ha
How it was run: as §3

beet [22] = experiment: Test Example 3: soil treatment, effect on crop; f: beet; conditions: treatment dosage 1250 g/ha
How it was run: as §3

crabgrass [23] = experiment: Test Example 4: weedkilling efficacy by foliar treatment; D: crabgrass; conditions: treatment dosage 1250 g/ha
How it was run: (§4)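 Seeds are spot-sown into sterilized diluvial soil and covered with about 1.5 cm of soil. After 14 days' greenhouse growth at 25 to 30° C, plants are sprayed on stems and leaves with diluted emulsion at the stated g/ha rate, then scored at 3 weeks.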

green foxtail [24] = experiment: Test Example 4: weedkilling efficacy by foliar treatment; E: green foxtail; conditions: treatment dosage 1250 g/ha
How it was run: as §4

wild oat [25] = experiment: Test Example 4: weedkilling efficacy by foliar treatment; G: wild oat; conditions: treatment dosage 1250 g/ha
How it was run: as §4

black-grass [26] = experiment: Test Example 4: weedkilling efficacy by foliar treatment; H: black-grass; conditions: treatment dosage 1250 g/ha
How it was run: as §4

Italian ryegrass [27] = experiment: Test Example 4: weedkilling efficacy by foliar treatment; I: Italian ryegrass; conditions: treatment dosage 1250 g/ha
How it was run: as §4

Indian mallow [28] = experiment: Test Example 4: weedkilling efficacy by foliar treatment; K: Indian mallow; conditions: treatment dosage 1250 g/ha
How it was run: as §4

redroot pigweed [29] = experiment: Test Example 4: weedkilling efficacy by foliar treatment; L: redroot pigweed; conditions: treatment dosage 1250 g/ha
How it was run: as §4

fig-leafed goosefoot [30] = experiment: Test Example 4: weedkilling efficacy by foliar treatment; M: fig-leafed goosefoot; conditions: treatment dosage 1250 g/ha
How it was run: as §4

chickweed [31] = experiment: Test Example 4: weedkilling efficacy by foliar treatment; N: chickweed; conditions: treatment dosage 1250 g/ha
How it was run: as §4

catchweed [32] = experiment: Test Example 4: weedkilling efficacy by foliar treatment; O: catchweed; conditions: treatment dosage 1250 g/ha
How it was run: as §4

birds-eye speedwell [33] = experiment: Test Example 4: weedkilling efficacy by foliar treatment; p: birds-eye speedwell; conditions: treatment dosage 1250 g/ha
How it was run: as §4

directly sown rice [34] = experiment: Test Example 4: foliar treatment, effect on crop; b: directly sown rice; conditions: treatment dosage 1250 g/ha
How it was run: as §4

corn [35] = experiment: Test Example 4: foliar treatment, effect on crop; c: corn; conditions: treatment dosage 1250 g/ha
How it was run: as §4

soybean [36] = experiment: Test Example 4: foliar treatment, effect on crop; d: soybean; conditions: treatment dosage 1250 g/ha
How it was run: as §4

wheat [37] = experiment: Test Example 4: foliar treatment, effect on crop; e: wheat; conditions: treatment dosage 1250 g/ha
How it was run: as §4

beet [38] = experiment: Test Example 4: foliar treatment, effect on crop; f: beet; conditions: treatment dosage 1250 g/ha
How it was run: as §4

For `CC1=C(c2cccnc2Cl)C(=O)N(C(C)(C)C(=O)Nc2cccc(Cl)n2)CO1` [B-2-20], the “A (barnyard grass) weedkilling efficacy grade” value (barnyard grass [1]) was 5 (weed kill ratio 90% or more, (practically complete withering)), the “B (bulrush) weedkilling efficacy grade” value (bulrush [2]) was 5 (weed kill ratio 90% or more, (practically complete withering)) and the “C (oval-leafed pondweed) weedkilling efficacy grade” value (oval-leafed pondweed [3]) was 4 (weed kill ratio 70% or more, less than 90%). For the same molecule, the “a (transplanted rice) effect on crop grade” value (transplanted rice) was 0 (weed kill ratio 5% or less (practically no effect)), the “A (barnyard grass) weedkilling efficacy grade” value (barnyard grass [4]) was 1 (weed kill ratio 5% or more, less than 20%) and the “B (bulrush) weedkilling efficacy grade” value (bulrush [5]) was 5 (weed kill ratio 90% or more, (practically complete withering)). For the same molecule, the “C (oval-leafed pondweed) weedkilling efficacy grade” value (oval-leafed pondweed [6]) was 3 (weed kill ratio 40% or more, less than 70%), the “D (crabgrass) weedkilling efficacy grade” value (crabgrass [7]) was 3 (weed kill ratio 40% or more, less than 70%) and the “E (green foxtail) weedkilling efficacy grade” value (green foxtail [8]) was 5 (weed kill ratio 90% or more, (practically complete withering)). For the same molecule, the “G (wild oat) weedkilling efficacy grade” value (wild oat [9]) was 0 (weed kill ratio 5% or less (practically no effect)), the “H (black-grass) weedkilling efficacy grade” value (black-grass [10]) was 5 (weed kill ratio 90% or more, (practically complete withering)) and the “I (Italian ryegrass) weedkilling efficacy grade” value (Italian ryegrass [11]) was 5 (weed kill ratio 90% or more, (practically complete withering)). For the same molecule, the “K (Indian mallow) weedkilling efficacy grade” value (Indian mallow [12]) was 2 (weed kill ratio 20% or more, less than 40%), the “L (redroot pigweed) weedkilling efficacy grade” value (redroot pigweed [13]) was 4 (weed kill ratio 70% or more, less than 90%) and the “M (fig-leafed goosefoot) weedkilling efficacy grade” value (fig-leafed goosefoot [14]) was 4 (weed kill ratio 70% or more, less than 90%). The “N (chickweed) weedkilling efficacy grade” value (chickweed [15]) was 3 (weed kill ratio 40% or more, less than 70%), the “O (catchweed) weedkilling efficacy grade” value (catchweed [16]) was 0 (weed kill ratio 5% or less (practically no effect)) and the “P (birds-eye speedwell) weedkilling efficacy grade” value (birds-eye speedwell [17]) was 4 (weed kill ratio 70% or more, less than 90%). For the same molecule, the “b (directly sown rice) effect on crop grade” value (directly sown rice [18]) was 4 (weed kill ratio 70% or more, less than 90%), the “c (corn) effect on crop grade” value (corn [19]) was 0 (weed kill ratio 5% or less (practically no effect)) and the “d (soybean) effect on crop grade” value (soybean [20]) was 0 (weed kill ratio 5% or less (practically no effect)). For the same molecule, the “e (wheat) effect on crop grade” value (wheat [21]) was 0 (weed kill ratio 5% or less (practically no effect)), the “f (beet) effect on crop grade” value (beet [22]) was 4 (weed kill ratio 70% or more, less than 90%) and the “D (crabgrass) weedkilling efficacy grade” value (crabgrass [23]) was 5 (weed kill ratio 90% or more, (practically complete withering)). For the same molecule, the “E (green foxtail) weedkilling efficacy grade” value (green foxtail [24]) was 5 (weed kill ratio 90% or more, (practically complete withering)), the “G (wild oat) weedkilling efficacy grade” value (wild oat [25]) was 0 (weed kill ratio 5% or less (practically no effect)) and the “H (black-grass) weedkilling efficacy grade” value (black-grass [26]) was 4 (weed kill ratio 70% or more, less than 90%). For the same molecule, the “I (Italian ryegrass) weedkilling efficacy grade” value (Italian ryegrass [27]) was 4 (weed kill ratio 70% or more, less than 90%), the “K (Indian mallow) weedkilling efficacy grade” value (Indian mallow [28]) was 0 (weed kill ratio 5% or less (practically no effect)) and the “L (redroot pigweed) weedkilling efficacy grade” value (redroot pigweed [29]) was 3 (weed kill ratio 40% or more, less than 70%). For the same molecule, the “M (fig-leafed goosefoot) weedkilling efficacy grade” value (fig-leafed goosefoot [30]) was 3 (weed kill ratio 40% or more, less than 70%), the “N (chickweed) weedkilling efficacy grade” value (chickweed [31]) was 2 (weed kill ratio 20% or more, less than 40%) and the “O (catchweed) weedkilling efficacy grade” value (catchweed [32]) was 0 (weed kill ratio 5% or less (practically no effect)). The “P (birds-eye speedwell) weedkilling efficacy grade” value (birds-eye speedwell [33]) was 4 (weed kill ratio 70% or more, less than 90%), the “b (directly sown rice) effect on crop grade” value (directly sown rice [34]) was 0 (weed kill ratio 5% or less (practically no effect)) and the “c (corn) effect on crop grade” value (corn [35]) was 1 (weed kill ratio 5% or more, less than 20%). For the same molecule, the “d (soybean) effect on crop grade” value (soybean [36]) was 3 (weed kill ratio 40% or more, less than 70%), the “e (wheat) effect on crop grade” value (wheat [37]) was 0 (weed kill ratio 5% or less (practically no effect)) and the “f (beet) effect on crop grade” value (beet [38]) was 4 (weed kill ratio 70% or more, less than 90%).
